Data taken from patent US9771563B2, “Chemical approaches for generation of induced pluripotent stem cells” (The Scripps Research Institute, priority 2008, dated 2017).
Each block holds one compound with its values, some of them ahead of it.

What was measured:
cellular reprogramming = assay: Enhancement of cellular reprogramming by nuclear receptor ligands; assay type: cell-based
OG2 MEFs = assay: Reprogramming of OG2 MEFs retrovirally transduced with OSKM or OSK (EGFP positive colonies); assay type: cell-based, mouse; conditions: 2 μM SB431542, 5 μM CHIR99021, 0.1 μM PD0325901
Method: MEFs were derived from OG2 mice according to the protocol reported on WiCell Research Institute website: “Introduction to human embryonic stem cell culture methods”. OG2 transgenic mice carry both GFP under the control of the Oct4 promoter. MEFs were transduced with either (1) Oct4, Klf4, Sox2 and c-Myc; or (2) Oct4, Klf4, and Sox2 as described (Takahashi & Yamanaka, Cell. 2006; 126:663-676). […] Transduced MEFs were then treated with chemicals or chemical combinations, including GSK-3 inhibitor CHIR99021 (5 μM), TGFβ receptor inhibitor SB431542 (2 μM), MEK inhibitor PD0325901 (0.1 μM) for 11 days (for Oct4, Klf4, Sox2 and c-Myc transduced MEFs) or 13 days (for Oct4, Klf4 and Sox2 transduced MEFs), and EGFP positive colonies were counted.

[1] = system: human primary fibroblasts (CRL2097 or BJ); assay: Reprogramming of human primary fibroblasts transduced with 4TFs; assay type: cell-based
Method: We tested known inhibitors of the TGFβ receptor and MEK on 1×10^4 [Feng, B. et al., Cell Stem Cell 4, 301-12 (2009)] human primary fibroblasts (CRL2097 or BJ) that were retrovirally transduced with the 4TFs (Oct4, Klf4, Sox2 and c-Myc), for their effects on reprogramming kinetics and efficiency. On day 7 (D7) post-infection, the compounds were added, individually or in combinations, and the cultures were examined for iPSCs over the next 1-3 weeks.
The Slc7a1-expressing human fibroblast cells were seeded at 1×10^5 cells/well of a 6 well plate on the day 1. On day 2, 0.25 ml of each retroviral supernatant was added to the cells in the presence of 6 μg/ml polybrene. A second round of transduction was done on day 3. Infection efficiency was estimated by fluorescence microscopy on cells transduced in parallel with GFP or RFP gene-carrying retroviruses. Seven days after initial transduction, fibroblasts were harvested by trypsinization and re-plated at 1×10^4 cells/well of a 6 well plate coated with matrigel (1:50 dilution, cat 354234, BD Biosciences). For compound treatment, the cells were cultured in human reprogramming medium (DMEM/F12, 20% Knockout serum replacer, lx MEM Non-Essential amino acid, lx glutamax, 0.11 mM 2-Mercaptoethanol, 20 ng/ml bFGF and 1,000 U/ml LIF) and were treated with 2 μM SB431542 (Stemgent), 0.5 μM PD0325901 (Stemgent), or combinations of the compounds. The media were changed every 2-3 days depending on the cell density. Seven days after compound treatment, either the plates were fixed and stained for Alkaline phosphatase (ALP) activity, or stained for protein markers, or the cultures were continued with or without indicated splitting by trypsinization till day 30. For split cultures, the cells were split (1:4) and re-plated onto irradiated CF-1 MEF feeder layer (2.5×10^5 cells/well) in each well of 6 well plate and were split (1:10) again on day 21. The cells were maintained in the same media and compound cocktail described above except for the concentrations of PD0325901 (0.5 μM for D14 and 1 μM for D21) and SB431542 (0.5-1 μM after D14). The iPSC colonies were subsequently maintained in conventional hESC media in the absence of the above compounds.
Alkaline phosphatase staining was performed using ALP detection kit (cat no: SCR004, Chemicon) according to the product instructions. For immunocytochemistry, cells were fixed in 4% paraformaldehyde (10 min, RT), washed twice with PBS, blocked using 5% normal donkey serum (Chemicon) and 0.1% TritonX-100 (15 min, RT) and then treated with primary antibodies overnight at 4° C. The primary antibodies used were anti-NANOG (cat no: AB9220, Chemicon, 1:1,000); anti-OCT4 (cat no: sc-5279, Santa Cruz biotech, 1:200), anti-SSEA 4 (cat no: mab4304, Chemicon, 1:500), anti-Tra-1-81 (cat 560123, BD Biosciences, 1:100), anti-Tra-1-81 (mAb 4381, Chemicon, 1:500), anti-βIII TUBULIN (cat no: MMS-435P, Covance Research Products Inc, 1:1000), anti-PDX 1 (1:500) (a kind gift from Dr. C. Wright), anti-BRACHYURY (cat No: AF2085, R & D, final concentration 0.2 μg/ml). The cells were washed twice with PBS and then treated with secondary antibodies for 1 hour at room temperature. The secondary antibodies used were Alexa fluor 488 donkey anti-rabbit or anti-mouse IgG (Invitrogen, 1:1,000) and Alexa fluor 555 donkey anti-rabbit or anti-mouse IgG (Invitrogen, 1:1,000). Nuclei were stained with 0.5 μg/ml DAPI (Sigma). Images were captured using a Nikon Eclipse TE2000-U/X-cite 120 EXFO microscope with a photometric CoolSnap HQ2 camera.
We tested the TGFβ receptor inhibitor (SB431542), MEK inhibitor (PD0325901) and GSK-3 inhibitor (CHIR99021), on human fibroblast crl2097 that were retrovirally transduced with Oct4, Klf4, Sox2 and c-Myc, for their effects on reprogramming kinetics and efficiency. Conditions are the same as set forth in Example 5. Data were collected 8 days after compound treatment.

mouse fibroblasts = assay: Reprogramming of mouse fibroblasts with exogenous poly-Arg transcription factor proteins; assay type: cell-based; conditions: cells incubated with transcription factor proteins plus agent
Method: Mouse fibroblasts were grown in mESC medium supplemented with 8 μg/ml of either Oct4/Sox2/Klf4 or Oct4/Sox2/Klf4/Myc (all proteins comprising poly-Arg as described above) for 6-8 hours, washed, and incubated for 2-3 days in mESC media without the above-listed transcription factors. This (4-12 hours with, 1-3 days without) was repeated a number (1, 2, 3, 4, or more) of times and then the cells were cultured in mESC for two weeks.
Mouse fibroblasts were grown in mESC growth medium [Knockout DMEM (Invitrogen) supplemented with 10% ES-FBS+10% KSR, 0.1 mM 2-ME, 1% Glutamax, 1% Non-essential amino acids, 1% EmbryoMax ESC Qualified Nucleosides (Millipore), and 10^3 units/ml LIF (ESGRO, Chemicon International)] supplemented with 8 μg/ml of Oct4/Sox2/Klf4/Myc (all four transcription factors are tagged with poly-Arg […]; SEQ ID NO:2) for 4-12 hours, followed by culturing the cells in the absence of the Oct4/Sox2/Klf4/Myc polypeptides for one day. This procedure was repeated 4 times. The cells were then cultured in mESC medium for another two weeks. iPSC clones were detected by colony morphology and expression of pluripotency markers. An intermediate iPSC clone, which expresses ALP but not Oct4 (Oct4), was dissociated with Trypsin-EDTA. The clone was then expanded by continuous culturing with regular mESC medium or medium supplemented with 0.5 μM PD0325901, 3 μM CHIR99021, 0.5 μM A-83-01. The number of Oct4-positive colonies were counted 2 weeks after small molecule treatment (FIG. 14).

- cellular reprogramming (cellular reprogramming; at 3 μM): can enhance cellular reprogramming
SMILES: C=C(c1ccc(C(=O)O)cc1)c1cc2c(cc1C)C(C)(C)CCC2(C)C [Bexarotene]

- cellular reprogramming (cellular reprogramming; used at 5 μM): can enhance cellular reprogramming
SMILES: CC(C)C[C@H](NC(=O)OCC1c2ccccc2-c2ccccc21)C(=O)O [Fmoc-Leu]

SMILES: NC(=O)c1ccc(-c2nc(-c3ccc4c(c3)OCO4)c(-c3ccccn3)[nH]2)cc1 [SB431542]
- reprogramming efficiency (OG2 MEFs; Oct4, Klf4, Sox2 and c-Myc transduced MEFs, 11-day treatment): ~1.8%
- reprogramming efficiency (OG2 MEFs; Oct4, Klf4, and Sox2 transduced MEFs, 13-day treatment): ~1.2%
- ALP+ colonies with hESC-like morphology (FIG. 7A) ([1]; 4TFs transduced fibroblasts, 7 days after compound treatment, SB431542 at 2 μM): yielded colonies with hESC-like morphology as early as 7 days after compound treatment
- number of granulate (partially reprogrammed) colonies ([1]; 30 days): outnumbered by several fold the few hESC-like colonies
- dose dependence of effect on reprogramming ([1]; FIG. 7): dose dependent
- ALP+ colonies with characteristic hESC-like morphology ([1]; day 7 post-treatment (D14), SB431542 2 μM, PD0325901 0.5 μM, 1×10^4 cells): 1-2 colonies
- efficiency and speed of development of pluripotent cells (mouse fibroblasts): improved efficiency and speed of development of pluripotent cells
